Source: patent US9028845B2, “Chimeric immunomodulatory compounds and methods of using the same-IV” (Dynavax Technologies Corporation, priority 2001, dated 2015)

Test system: human PBMCs
Assay: Human PBMC cytokine response assay (IFN-γ and IFN-α in cell-free medium by ELISA), with or without cPLGA;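 for IFN-α (pg/ml) mean: 20 µg/mL compound for 24 hours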;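 for IFN-γ (pg/ml) mean: 20 µg/mL compound for 24 hours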
Assay type: cell-based
[1] = Table 24, mean of donors 28234-28237
[2] = Table 25, mean of donors 28250-28253
[3] = donor 28066, 20 ug/ml, 24 h, + PLGA = premixed with 100 μg/ml cPLGA
[4] = donor 28067, 20 ug/ml, 24 h, + PLGA = premixed with 100 μg/ml cPLGA
[5] = donor 28068, 20 ug/ml, 24 h, + PLGA = premixed with 100 μg/ml cPLGA
[6] = mean of Donors 1-2, 20 μg/ml, 24 h
[7] = mean of Donors 3-4, 20 μg/ml, 24 h
[8] = mean of Donors 5-6, 20 μg/ml (mixtures: 20 μg/ml total), 24 h
[9] = mean of Donors 7-8, 20 μg/ml, 24 h
[10] = mean of Donors 9-12, 20 μg/ml, 24 h
[11] = mean of donors 110, 112, 119, 120, Table 14
[12] = mean of donors 28057-28060, Table 16
[13] = mean of donors 28065-28068, 20 ug/ml, 24 h, + PLGA = premixed with 100 μg/ml cPLGA
[14] = mean of donors 28185-28188, Table 15
[15] = mean of donors 28218-28221, 20 μg/ml, 24 h

5′-TGACTGTGAACGTTCGAGATGA-3′ (SEQ ID NO: 2) [Compound P-6, reference compound]
IFN-α (Table 13, donor 28158): 7 pg/mL | IFN-γ (Table 13, donor 28158): 207 pg/mL | IFN-α (Table 13, donor 28159): 32 pg/mL | IFN-γ (Table 13, donor 28159): 231 pg/mL | IFN-α mean (Table 13, mean of donors): 144 pg/mL | IFN-γ mean (Table 13, mean of donors): 611 pg/mL | IFN-α (Table 24, donor 28234): 58 pg/mL | IFN-γ (Table 24, donor 28234): 15 pg/mL | IFN-α (Table 24, donor 28235): 16 pg/mL | IFN-γ (Table 24, donor 28235): 52 pg/mL | IFN-α (Table 24, donor 28236): 16 pg/mL | IFN-γ (Table 24, donor 28236): 51 pg/mL | IFN-α (Table 24, donor 28237): 74 pg/mL | IFN-γ (Table 24, donor 28237): 1167 pg/mL | IFN-α mean [1]: 41 pg/mL | IFN-γ mean [1]: 321 pg/mL | IFN-a (Table 25, donor 28250): 16 pg/mL | IFN-a (Table 25, donor 28251): 16 pg/mL | IFN-g (Table 25, donor 28251): 18 pg/mL | IFN-a (Table 25, donor 28252): 16 pg/mL | IFN-g (Table 25, donor 28252): 34 pg/mL | IFN-a (Table 25, donor 28253): 16 pg/mL | IFN-g (Table 25, donor 28253): 37 pg/mL | IFN-a mean [2]: 16 pg/mL | IFN-g mean [2]: 52 pg/mL | IFN-α (donor 110, Table 14): 50 pg/mL | IFN-γ (donor 110, Table 14): 1508 pg/mL | IFN-α (donor 112, Table 14): 172 pg/mL | IFN-γ (donor 112, Table 14): 344 pg/mL | IFN-α (donor 119, Table 14): 234 pg/mL | IFN-γ (donor 119, Table 14): 144 pg/mL | IFN-α (donor 120, Table 14): 72 pg/mL | IFN-γ (donor 120, Table 14): 104 pg/mL | IFN-α (donor 28057, Table 16): 621 pg/mL | IFN-γ (donor 28057, Table 16): 83 pg/mL | IFN-α (donor 28058, Table 16): 396 pg/mL | IFN-γ (donor 28058, Table 16): 103 pg/mL | IFN-α (donor 28059, Table 16): 145 pg/mL | IFN-γ (donor 28059, Table 16): 1230 pg/mL | IFN-α (donor 28060, Table 16): 123 pg/mL | IFN-γ (donor 28060, Table 16): 85 pg/mL | IFN-γ (pg/ml) 28065 (donor 28065 (high background), 20 ug/ml, 24 h, + PLGA = premixed with 100 μg/ml cPLGA, 1000 = outside assay limits): 439 pg/mL | IFN-α (pg/ml) 28065 (donor 28065, 20 ug/ml, 24 h, + PLGA = premixed with 100 μg/ml cPLGA): 14 pg/mL | IFN-α (pg/ml) 28066 [3]: 17 pg/mL | IFN-γ (pg/ml) 28066 [3]: 12 pg/mL | IFN-α (pg/ml) 28067 [4]: 45 pg/mL | IFN-γ (pg/ml) 28067 [4]: 28 pg/mL | IFN-α (pg/ml) 28068 [5]: 126 pg/mL | IFN-γ (pg/ml) 28068 [5]: 906 pg/mL | IFN-a (donor 28185, Table 15): 120 pg/mL | IFN-g (donor 28185, Table 15): 205 pg/mL | IFN-a (donor 28186, Table 15): 41 pg/mL | IFN-g (donor 28186, Table 15): 17 pg/mL | IFN-a (donor 28187, Table 15): 4 pg/mL | IFN-g (donor 28187, Table 15): 148 pg/mL | IFN-a (donor 28188, Table 15): 4 pg/mL | IFN-g (donor 28188, Table 15): 8 pg/mL | IFN-a (pg/ml) 28218 (donor 28218, 20 μg/ml, 24 h): 32 pg/mL | IFN-g (pg/ml) 28218 (donor 28218, 20 μg/ml, 24 h): 13 pg/mL | IFN-a (pg/ml) 28219 (donor 28219, 20 μg/ml, 24 h): 32 pg/mL | IFN-g (pg/ml) 28219 (donor 28219, 20 μg/ml, 24 h): 7 pg/mL | IFN-a (pg/ml) 28220 (donor 28220, 20 μg/ml, 24 h): 32 pg/mL | IFN-g (pg/ml) 28220 (donor 28220, 20 μg/ml, 24 h): 25 pg/mL | IFN-a (pg/ml) 28221 (donor 28221, 20 μg/ml, 24 h): 32 pg/mL | IFN-g (pg/ml) 28221 (donor 28221, 20 μg/ml, 24 h): 141 pg/mL | IFN-α (pg/ml) mean [6]: 220 pg/mL | IFN-γ (pg/ml) mean [6]: 1425 pg/mL | IFN-α (pg/ml) mean [7]: 67 pg/mL | IFN-γ (pg/ml) mean [7]: 161 pg/mL | IFN-α (pg/ml) mean [8]: 268 pg/mL | IFN-γ (pg/ml) mean [8]: 621 pg/mL | IFN-α (pg/ml) mean [9]: 32 pg/mL | IFN-γ (pg/ml) mean [9]: 191 pg/mL | IFN-α mean [10]: 16 | IFN-γ mean [10]: 45 | IFN-α (pg/ml) mean [11]: 132 pg/mL | IFN-γ (pg/ml) mean [11]: 525 pg/mL | IFN-α (pg/ml) mean [12]: 321 pg/mL | IFN-γ (pg/ml) mean [12]: 375 pg/mL | IFN-α (pg/ml) mean [13]: 50 pg/mL | IFN-γ (pg/ml) mean [13]: 346 pg/mL | IFN-a (pg/ml) mean [14]: 42 pg/mL | IFN-g (pg/ml) mean [14]: 94 pg/mL | IFN-a (pg/ml) mean [15]: 32 pg/mL | IFN-g (pg/ml) mean [15]: 47 pg/mL | IFN-a (pg/ml) ×2 (mean ×2, Table 15): 84 pg/mL | IFN-g (pg/ml) ×4 (mean ×4, Table 15): 378 pg/mL
